This data set in a line: Main transition temperature (TM) of phosphatidylcholines. The conditions noted are these: acyl chains at positions 1 and 2 of glycero-3-phosphocholine or 1 and 3 of glycero-2-phosphocholine. It is filed as physicochemical. The procedure: The abovementioned preferred composition of the liposome according to the invention can be made to measure for other temperature ranges by choice of components having the main transition temperature suitable in each case. In table 1, the main transition temperatures (TM) of phosphatidylcholines are indicated whose main transition temperature lies in the range from 0 to 80° C. The main transition temperatures are recognizable as from the table, depending on the chain length and the distribution over the positions 1 and 2 of glycero-3-phosphocholine or 1 and 3 of glycero-2-phosphocholine.

Take `CCCCCCCCCCCCCCCC(=O)OC[C@H](COP(=O)([O-])OCC[N+](C)(C)C)OC(=O)CCCCCCCCCCC` [1-palmitoyl-2-lauroyl-]: the “TM (main transition temperature)” value worked out at 11 °C.

For the compound `CCCCCCCC/C=C\CCCCCCCC(=O)O[C@H](COC(=O)CCCCCCCCCCCCCCCCC)COP(=O)([O-])OCC[N+](C)(C)C` [1-stearoyl-2-oleoyl-], the “TM (main transition temperature)” value amounted to 7 °C.

`CCCCCCCCCCCCCCCC(=O)OCC(COP(=O)([O-])OCC[N+](C)(C)C)OC(=O)CCCCCCCCCCCCCCC` (stereo not drawn) [1,2-dipalmitoyl-, 1,2-di-palmitoylglycero-3-phosphocholine]: the “TM (main transition temperature)” value amounted to 41 °C.

`CCCCCCCCCCCCCCCC(=O)OC(COC(=O)CCCCCCCCCCCCC)COP(=O)([O-])OCC[N+](C)(C)C` (stereo not drawn) [1-myristoyl-2-palmitoyl]: the “TM (main transition temperature)” value was determined as 37 °C.

With `CCCCCCCCCCCCCCCCCC(=O)OCC(COP(=O)([O-])OCC[N+](C)(C)C)OC(=O)CCCCCCCCCCCCCCCCC` (stereo not drawn) [1,2-distearoyl-, 1,2-distearoylglycero-3-phospho-choline], the “TM (main transition temperature)” value amounted to 56 °C.

On to `CCCCCCCCCCCCCCCCCC(=O)O[C@H](COC(=O)CCCCCCCCCCCCC)COP(=O)([O-])OCC[N+](C)(C)C` [1-myristoyl-2-stearoyl-], for which the “TM (main transition temperature)” value was 42 °C.

`CCCCCCCCCCCCCCCCCC(=O)O[C@H](COC(=O)CCCCCCCCCCCCCCC)COP(=O)([O-])OCC[N+](C)(C)C` [1-palmitoyl-2-stearoyl-]: the “TM (main transition temperature)” value was 52 °C.

Take `CCCCCCCCCCCCCC(=O)OC[C@H](COP(=O)([O-])OCC[N+](C)(C)C)OC(=O)CCCCCCCCCCCCC` [1,2-dimyristoyl-]: the “TM (main transition temperature)” value worked out at 23 °C.

On to `CCCCCCCCCCCCCCCCCC(=O)OCC(COC(=O)CCCCCCCCCCCCC)OP(=O)([O-])OCC[N+](C)(C)C` (stereo not drawn) [1-stearoyl-3-myristoyl-], for which the “TM (main transition temperature)” value turned out to be 46 °C.

`CCCCCCCCCCCCCCCCCC(=O)OC[C@H](COP(=O)([O-])OCC[N+](C)(C)C)OC(=O)CCCCCCCCCCCCCCC` [1-stearoyl-2-palmitoyl-]: the “TM (main transition temperature)” value was determined as 48 °C.

Regarding `CCCCCCCC/C=C\CCCCCCCC(=O)O[C@H](COC(=O)CCCCCCCCCCCCCCCCCCCCC)COP(=O)([O-])OCC[N+](C)(C)C` [1-behenoyl-2-oleoyl-], the “TM (main transition temperature)” value worked out at 14 °C.

On to `CCCCCCCCCCCCCCCC(=O)OC[C@H](COP(=O)([O-])OCC[N+](C)(C)C)OC(=O)CCCCCCCCCCCCC` [1-palmitoyl-2-myristoyl-], for which the “TM (main transition temperature)” value was 27 °C.

For `CCCCCCCCCCCCCC(=O)OCC(COC(=O)CCCCCCCCCCCCC)OP(=O)([O-])OCC[N+](C)(C)C` [1,3-dimyristoyl-], the “TM (main transition temperature)” value is 19 °C.

Regarding `CCCCCCCCCCCCCCCCCC(=O)OC[C@H](COP(=O)([O-])OCC[N+](C)(C)C)OC(=O)CCCCCCCCCCC` [1-stearoyl-2-lauroyl-], the “TM (main transition temperature)” value is 17 °C.

For `CCCCCCCCCCCCCCCCCC(=O)OCC(COC(=O)CCCCCCCCCCCCCCCCC)OP(=O)([O-])OCC[N+](C)(C)C` [1,3-distearoyl-], the “TM (main transition temperature)” value was 53 °C.

For the compound `CCCCCCCCCCCCCCCCCCCCCCCC(=O)OC[C@H](COP(=O)([O-])OCC[N+](C)(C)C)OC(=O)CCCCCCCCCCCCCCCCCCCCCCC` [1,2-dilignoceroyl-], the “TM (main transition temperature)” value is 80 °C.

`CCCCCCCC/C=C\CCCCCCCC(=O)O[C@H](COC(=O)CCCCCCCCCCCCCCC)COP(=O)([O-])OCC[N+](C)(C)C` [1-palmitoyl-2-oleoyl-]: the “TM (main transition temperature)” value came to 5 °C.

Take `CCCCCCCCCCCCCCCCCCCC(=O)OC[C@H](COP(=O)([O-])OCC[N+](C)(C)C)OC(=O)CCCCCCCCCCCCCCCCCCC` [1,2-diarachinoyl-]: the “TM (main transition temperature)” value is 66 °C.

With `CCCCCCCCCCCCCCCC(=O)OCC(COC(=O)CCCCCCCCCCCCCCC)OP(=O)([O-])OCC[N+](C)(C)C` [1,3-dipalmitoyl-], the “TM (main transition temperature)” value is 39 °C.

In the case of `CCCCCCCCCCCCCCCCCC(=O)OC[C@H](COP(=O)([O-])OCC[N+](C)(C)C)OC(=O)CCCCCCCCCCCCC` [1-stearoyl-2-myristoyl-], the “TM (main transition temperature)” value was 33 °C.

With `CCCCCCCCCCCCCCCCCCCCCC(=O)OC[C@H](COP(=O)([O-])OCC[N+](C)(C)C)OC(=O)CCCCCCCCCCCCCCCCCCCCC` [1,2-dibehenoyl-], the “TM (main transition temperature)” value came out at 75 °C.

For the origin of these results see US20100260683A1, “THERMOLABILE LIPOSOME WITH CONTROLLED RELEASE TEMPERATURE” (MAX-PLANCK-GESELLSCHAFT ZUR FORDERUNG DER WISSENCHAFTEN E.V., priority 2001, published 2010).
